# Experimental data published in US6610471B1, “Methods and compositions to investigate infection by hepatitis B virus and agents to prevent and treat the infection” (priority 1998, dated 2003).
# System: HBV
# Assay: Extracellular HBV DNA secreted by HBV baculovirus infected HepG2 cells (Southern blot, densitometry)
# Assay type: cell-based, hepatitis B virus
# Procedure: (T). […] Relaxed circular (RC) and double-stranded (DS) forms of HBV DNA are indicated. […] (T). […] Replicative intermediates were analyzed by Southern blotting. Double-stranded (DS) and single-stranded (SS) forms of HBV genomic DNA are indicated.
# One limitation of using stable cell lines, such as HepG2 2.2.15 cells, for evaluating the efficacy of an antiviral on HBV replication is that the magnitude of virus replication is at a static level predetermined by the number of integrated HBV genome copies. […] Cultures were fed fresh 3TC supplemented medium daily. After 3 days of treatment (4 days p.i.). DNA was extracted from the medium of treated and untreated control cultures and analyzed by Southern Blotting. Autoradiograms shown indicate different elngths of time of exposure of the blot to film: 1 hour (A), 2 hours (B), 4 hours (C), and 8 hours (D). Relaxed circular (RC) and double-stranded (DS) forms of HBV DNA are indicated. The largest reduction of extracellular HBV DNA (>99% reduction after six days of treatment) occurred in cells infected with 25 pfu of baculovirus, the lowest multiplicity tested. […] However, it is also important to note that even a 96% reduction in HBV replication still allowed high levels of HBV virions to be secreted from 3TC-treated cells which were replicating very high levels of HBV (i.e. cells infected with HBV baculovirus at a high moi).
# HepG2 cells were seeded at approximately 20% to 40% confluency and then were grown for 16 to 24 hours before infection. On the day of infection, duplicate plates of cells were trypsinized, and viable cell number was determined with a hemocytometer using Trypan blue exclusion. Average cell counts were calculated and used to determine the volume of high-titer viral stock necessary to infect cells at the indicated moi. Baculovirus was diluted into MEM-FBS to achieve the appropriate moi using volumes of 1.0 and 0.25 mL to infect 100-mm and 35-mm dishes, respectively. Baculovirus was adsorbed to HepG2 cells for one hour at 37° C. with gentle rocking every 15 minutes to ensure that the inoculum was evenly distributed. The inoculum was then aspirated and HepG2 cells were washed two times with phosphate-buffered saline and refed MEM-FBS.
# Conditioned medium was collected from HepG2 cells and subjected to centrifugation at 6,000 g for 5 minutes to I5- remove cellular debris. HBV particles were precipitated with 10% PEG 8000 and were concentrated by centrifugation at 12,000×g. Viral pellets were resuspended in 1 mL of MEM-FBS and divided into two aliquots. One set of aliquots was treated with 750 μg/mL Pronase for one hour and then with 500 mg/mL DNase 1 for one hour. Both sets of aliquots were then digested with Proteinase K, and extracted with phenol and chloroform. DNA was precipitated with 0.1 volume of 3 mol/L sodium acetate and 1 volume of isopropanol. Ten micrograms of transfer RNA was added as a carrier during precipitation. Pellets were resuspended in 25 μL of TE and digested with 0.5 mg/mL RNase for 1 hour. DNA was then analyzed by electrophoresis and Southern blotting.
# 3TC was a gift of BioChem Therapeutic Inc. (Laval, Quebec, Canada). […] Medium containing 3TC was prepared daily as needed using fresh aliquots of 3TC.
structure (smiles),measurement,setting,value
"Nc1ccn([C@@H]2CS[C@H](CO)O2)c(=O)n1 [3TC, (−)-2′-dideoxy-3′-thiacytidine]","extracellular HBV DNA, % Untreated Control","0.02 μM 3TC, P (from 16 h prior to infection), day 4 p.i. (3 days treatment), 50 pfu/cell",69.8 % Untreated Control
same,"extracellular HBV DNA, % Untreated Control","0.02 μM 3TC, P (from 16 h prior to infection), day 7 p.i. (6 days treatment), 50 pfu/cell",60.6 % Untreated Control
same,"extracellular HBV DNA, % Untreated Control","0.02 μM 3TC, P (from 16 h prior to infection), day 10 p.i. (9 days treatment), 50 pfu/cell",38.1 % Untreated Control
same,"extracellular HBV DNA, % Untreated Control","0.02 μM 3TC, T (from 24 h p.i.), day 4 p.i. (3 days treatment), 50 pfu/cell",68.1 % Untreated Control
same,"extracellular HBV DNA, % Untreated Control","0.02 μM 3TC, T (from 24 h p.i.), day 7 p.i. (6 days treatment), 50 pfu/cell",39.6 % Untreated Control
same,"extracellular HBV DNA, % Untreated Control","0.02 μM 3TC, T (from 24 h p.i.), day 10 p.i. (9 days treatment), 50 pfu/cell",33.0 % Untreated Control
same,reduction of extracellular HBV DNA,"0.02 μM 3TC, nine day treatment, moi 50 pfu/cell",67%
same,reduction of HBV DNA in the medium,"0.02 μM 3TC, three days of treatment, moi 50 pfu/cell",about 30%
same,"extracellular HBV DNA, % Untreated Control","0.2 μM 3TC from 24 h p.i., moi 25, day 4 p.i. (3 days treatment)",4.8 % Untreated Control
same,"extracellular HBV DNA, % Untreated Control","0.2 μM 3TC from 24 h p.i., moi 25, day 7 p.i. (6 days treatment)",0.5 % Untreated Control
same,"extracellular HBV DNA, % Untreated Control","0.2 μM 3TC from 24 h p.i., moi 50, day 4 p.i. (3 days treatment)",13.9 % Untreated Control
same,"extracellular HBV DNA, % Untreated Control","0.2 μM 3TC from 24 h p.i., moi 50, day 7 p.i. (6 days treatment)",3.5 % Untreated Control
same,"extracellular HBV DNA, % Untreated Control","0.2 μM 3TC from 24 h p.i., moi 100, day 4 p.i. (3 days treatment)",27.2 % Untreated Control
same,"extracellular HBV DNA, % Untreated Control","0.2 μM 3TC from 24 h p.i., moi 100, day 7 p.i. (6 days treatment)",3.4 % Untreated Control
same,"extracellular HBV DNA, % Untreated Control","0.2 μM 3TC from 24 h p.i., moi 200, day 4 p.i. (3 days treatment)",20.7 % Untreated Control
same,"extracellular HBV DNA, % Untreated Control","0.2 μM 3TC from 24 h p.i., moi 200, day 7 p.i. (6 days treatment)",2.2 % Untreated Control
same,"extracellular HBV DNA, % Untreated Control","0.2 μM 3TC from 24 h p.i., moi 400, day 4 p.i. (3 days treatment)",18.7 % Untreated Control
same,"extracellular HBV DNA, % Untreated Control","0.2 μM 3TC from 24 h p.i., moi 400, day 7 p.i. (6 days treatment)",4.7 % Untreated Control
same,"extracellular HBV DNA, % Untreated Control","0.2 μM 3TC, P (from 16 h prior to infection), day 4 p.i. (3 days treatment), 50 pfu/cell",10.1 % Untreated Control
same,"extracellular HBV DNA, % Untreated Control","0.2 μM 3TC, P (from 16 h prior to infection), day 7 p.i. (6 days treatment), 50 pfu/cell",2.4 % Untreated Control
same,"extracellular HBV DNA, % Untreated Control","0.2 μM 3TC, P (from 16 h prior to infection), day 10 p.i. (9 days treatment), 50 pfu/cell",0.8 % Untreated Control
same,"extracellular HBV DNA, % Untreated Control","0.2 μM 3TC, T (from 24 h p.i.), day 4 p.i. (3 days treatment), 50 pfu/cell",13.4 % Untreated Control
same,"extracellular HBV DNA, % Untreated Control","0.2 μM 3TC, T (from 24 h p.i.), day 7 p.i. (6 days treatment), 50 pfu/cell",5.6 % Untreated Control
same,"extracellular HBV DNA, % Untreated Control","0.2 μM 3TC, T (from 24 h p.i.), day 10 p.i. (9 days treatment), 50 pfu/cell",1.9 % Untreated Control
same,reduction of extracellular HBV DNA,"0.2 μM 3TC, six days of treatment, 25 pfu of baculovirus",> 99%
same,average reduction of extracellular HBV DNA,"0.2 μM 3TC, six days of treatment, multiplicities 50 to 400 pfu/cell",greater than 96%
same,"extracellular HBV DNA, % Untreated Control","2.0 μM 3TC, P (from 16 h prior to infection), day 4 p.i. (3 days treatment), 50 pfu/cell",1.3 % Untreated Control
same,"extracellular HBV DNA, % Untreated Control","2.0 μM 3TC, P (from 16 h prior to infection), day 7 p.i. (6 days treatment), 50 pfu/cell",1.2 % Untreated Control
same,"extracellular HBV DNA, % Untreated Control","2.0 μM 3TC, P (from 16 h prior to infection), day 10 p.i. (9 days treatment), 50 pfu/cell",0.8 % Untreated Control
same,"extracellular HBV DNA, % Untreated Control","2.0 μM 3TC, T (from 24 h p.i.), day 4 p.i. (3 days treatment), 50 pfu/cell",2.4 % Untreated Control
same,"extracellular HBV DNA, % Untreated Control","2.0 μM 3TC, T (from 24 h p.i.), day 7 p.i. (6 days treatment), 50 pfu/cell",2.4 % Untreated Control
same,"extracellular HBV DNA, % Untreated Control","2.0 μM 3TC, T (from 24 h p.i.), day 10 p.i. (9 days treatment), 50 pfu/cell",0.8 % Untreated Control
same,reduction of extracellular HBV DNA,"2.0 μM 3TC, nine days of treatment, moi 50 pfu/cell",more than 99%
